Literature values, collected in patent US12551454B2, “Isoproterenol compositions and methods” (Endo Operations Limited, priority 2020, dated 2026).

Conditions: more potent than its (S)-enantiomer

In the case of `CC(C)NC[C@H](O)c1ccc(O)c(O)c1` (single isomer, unassigned) [(R)-enantiomer of Isoproterenol], the “potency relative to (S)-enantiomer” value is listed as roughly 90 times.
